This is an account of results in PMC8886686 (Journal of Inorganic Biochemistry, 2022).

For test [1], the target named is T1, SARS-CoV-2 3CLpro (Severe acute respiratory syndrome coronavirus 2, UniProt P0DTD1). The test is classed as binding. Conditions: 50 μM metal ion.
Test [2] has as its target T2, SARS-CoV-2 PLpro (Severe acute respiratory syndrome coronavirus 2, UniProt P0DTD1). The test is classed as binding.
The target in test [3] is T1, SARS-CoV-2 3CLpro. The test is classed as biochemical.
In test [4] the target is T2, SARS-CoV-2 PLpro. It is filed as biochemical. The note with it: 1 μM PLpro.
The target of test [5] is T2, SARS-CoV-2 PLpro. Nature of the test: PLpro deubiquitination assay with ubiquitin-AMC substrate. It is filed as biochemical.
The target of the next test is SARS-CoV-2 WT-PLpro (Severe acute respiratory syndrome coronavirus 2, UniProt P0DTD1). Description: Zn2+ content determination by ICP-MS, PLpro. The test is classed as binding.
For test [6], the target named is T1, SARS-CoV-2 3CLpro. The test is classed as binding.
Test [7] addresses T2, SARS-CoV-2 PLpro. It is filed as binding. Conditions: 50 μM metal ion.
In another test the target is SARS-CoV-2 WT-3CLpro (Severe acute respiratory syndrome coronavirus 2, UniProt P0DTD1). Description: Zn2+ content determination by ICP-MS, 3CLpro. The test is classed as binding.

In the case of `O=C([O-])[C@H](O)[C@@H](O)[C@H](O)[C@H](O)CO.O=C([O-])[C@H](O)[C@@H](O)[C@H](O)[C@H](O)CO.[Zn+2]` [Zn^2+, zinc gluconate], the “effect on melting temperature of 3CLpro” value at SARS-CoV-2 3CLpro [1] was “most potent metal ion to decrease the melting temperatures”. The “Zn2+ bound to PLpro (ITC stoichiometry)” value at SARS-CoV-2 PLpro [2] is 1.23 ± 0.01 eq. Further, the Kd at SARS-CoV-2 PLpro [2] (read-out: dissociation constant (KD), PLpro) stood at 2170 ± 360 nM; at SARS-CoV-2 3CLpro [6] (read-out: dissociation constant (KD), 3CLpro (monomer)) it was 4080 ± 660 nM. Besides, at SARS-CoV-2 3CLpro [3] (50 μM metal ion, 0.5 μM 3CLpro), the “inhibition of the proteolytic activity of 3CLpro” value was 97.6%. Further, the IC50 was determined as 540 ± 40 nM on SARS-CoV-2 3CLpro [3] (read-out: IC50, 3CLpro activity, 0.5 μM WT-3CLpro, 10 μM substrate) and 530 ± 40 nM on SARS-CoV-2 PLpro [4] (read-out: IC50, PLpro activity, 20 μM peptide substrate). Moreover, the “inhibition of the proteolytic activity of PLpro” value against SARS-CoV-2 PLpro [4] (50 μM metal ion) is reported as 98%. Moreover, the “inhibition of PLpro deubiquitination activity” value on SARS-CoV-2 PLpro [5] stood at 95.7%. Also, the “Zn2+ binding capacity per PLpro monomer (ICP-MS)” value at SARS-CoV-2 WT-PLpro is recorded as 1.90 ± 0.01 eq. Besides, the “Zn2+ bound to 3CLpro monomer (ITC stoichiometry)” value at SARS-CoV-2 3CLpro [6] was determined as 0.79 ± 0.01 eq. The “effect on melting temperature of PLpro” value at SARS-CoV-2 PLpro [7] is listed as “most potent metal ion to decrease the melting temperatures”. In addition, the “Zn2+ binding capacity of 3CLpro monomer (ICP-MS)” value at SARS-CoV-2 WT-3CLpro is reported as 1.24 ± 0.01 eq.
